Experimental findings from PubChem BioAssay AID328 (DTP/NCI, 2004) are described below.

Several values for one entry are separate records, joined by “and”; a condition that tells them apart may be missing. Identical values can stand only once. Inconclusive results and toxic doses are left out.

This assay deals with BDF1 mice, P388 leukemia ip, median survival T/C. The experiment in a line: NCI In Vivo Anticancer Drug Screen. Data for tumor model P388 Leukemia (intraperitoneal) in B6D2F1 (BDF1) mice. To be noted: endpoint: median survival time, higher = longer survival. The method, boiled down: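 Steps: implant the tumour, treat one group with compound and another with vehicle, record survival, then divide treated by control.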

The mark [1] stands for this setting: dose: 6.25 mg/kg/injection, schedule: Q01DX009 (ip), vehicle: saline.
The mark [2] stands for this setting: dose: 12.5 mg/kg/injection, schedule: Q01DX009 (ip), vehicle: saline.
[3] abbreviates: dose: 25.0 mg/kg/injection, schedule: Q01DX009 (ip), vehicle: saline with Tween-80.
Setting [4] is: dose: 100.0 mg/kg/injection, schedule: Q01DX009 (ip), vehicle: saline with Tween-80.
[5] abbreviates: dose: 200.0 mg/kg/injection, schedule: Q01DX009 (ip), vehicle: saline.
Setting [6] is: dose: 100.0 mg/kg/injection, schedule: Q01DX009 (ip), vehicle: saline.
Where [7] appears, read: dose: 400.0 mg/kg/injection, schedule: Q01DX009 (ip), vehicle: saline.
Setting [8] is: dose: 25.0 mg/kg/injection, schedule: Q01DX009 (ip), vehicle: Klucel (hydroxypropylcellulose) (HPC).
[9] abbreviates: dose: 100.0 mg/kg/injection, schedule: Q04DX003 (ip), vehicle: Klucel (hydroxypropylcellulose) (HPC).
Setting [10] is: dose: 200.0 mg/kg/injection, schedule: Q04DX003 (ip), vehicle: saline with Tween-80.
Setting [11] is: dose: 50.0 mg/kg/injection, schedule: Q01DX009 (ip), vehicle: saline with Tween-80.

As for `CCC(=N\NC(=S)NCCN(CC)CC)/C(C)=N/NC(=S)NCCN(CC)CC`, the T/C (dose: 1.56 mg/kg/injection, schedule: Q01DX009 (ip), vehicle: saline) is 116 % of control; the T/C (dose: 3.13 mg/kg/injection, schedule: Q01DX009 (ip), vehicle: saline) was 105 % of control; the T/C under setting [1] is 106 % of control; the T/C under setting [2] was 109 % of control and 118 % of control.
For `COC(=O)C1=C(C)NC(=O)NC1c1ccccc1` (centres undefined), the T/C was 100 % of control (dose: 100.0 mg/kg/injection, schedule: Q01DX001 (ip), vehicle: saline with Tween-80); 100 % of control (dose: 200.0 mg/kg/injection, schedule: Q01DX001 (ip), vehicle: saline with Tween-80); 100 % of control (dose: 400.0 mg/kg/injection, schedule: Q01DX001 (ip), vehicle: saline with Tween-80).
`O=C(O)CSC(=S)c1ccccc1`: the T/C by setting is: under setting [3], 118 % of control; under setting [4], 121 % of control.
With `CCNC(=NC)c1ccc(NC(=O)c2ccc(C(=O)Nc3ccc(C(=NC)NCC)cc3)cc2)cc1`, the T/C (dose: 3.9 mg/kg/injection, schedule: Q01DX009 (ip), vehicle: saline with Tween-80) is 118 % of control; the T/C (dose: 4.0 mg/kg/injection, schedule: Q01DX009 (ip), vehicle: saline with Tween-80) is 179 % of control; the T/C (dose: 9.0 mg/kg/injection, schedule: Q01DX009 (ip), vehicle: saline with Tween-80) is 109 % of control.
`O=C(O)CCC(=O)O`: the T/C (dose: 10.0 mg/kg/injection, schedule: Q01DX009 (ip), vehicle: saline) was 101 % of control and 122 % of control and 100 % of control; the T/C (dose: 10.0 mg/kg/injection, schedule: Q01DX009 (ip), vehicle: water) was 111 % of control and 98 % of control; the T/C (dose: 20.0 mg/kg/injection, schedule: Q01DX009 (ip), vehicle: saline) is 105 % of control and 115 % of control and 106 % of control; the T/C (dose: 20.0 mg/kg/injection, schedule: Q01DX009 (ip), vehicle: water) was 117 % of control and 120 % of control; the T/C (dose: 25.0 mg/kg/injection, schedule: Q01DX009 (ip), vehicle: other) is 105 % of control and 120 % of control; the T/C (dose: 40.0 mg/kg/injection, schedule: Q01DX009 (ip), vehicle: saline) is 109 % of control and 108 % of control. Also, the T/C reads like this: (dose: 40.0 mg/kg/injection, schedule: Q01DX009 (ip), vehicle: water) 124 % of control and 100 % of control; (dose: 50.0 mg/kg/injection, schedule: Q01DX009 (ip), vehicle: other) 103 % of control and 102 % of control; (dose: 80.0 mg/kg/injection, schedule: Q01DX009 (ip), vehicle: saline) 108 % of control and 117 % of control; (dose: 80.0 mg/kg/injection, schedule: Q01DX009 (ip), vehicle: water) 115 % of control and 117 % of control; (dose: 100.0 mg/kg/injection, schedule: Q01DX009 (ip), vehicle: other) 102 % of control and 119 % of control; (dose: 160.0 mg/kg/injection, schedule: Q01DX009 (ip), vehicle: saline) 114 % of control and 110 % of control. Further, the T/C reads like this: (dose: 160.0 mg/kg/injection, schedule: Q01DX009 (ip), vehicle: water) 98 % of control and 124 % of control; (dose: 200.0 mg/kg/injection, schedule: Q01DX009 (ip), vehicle: other) 110 % of control; under setting [5], 99 % of control and 115 % of control.
For `COC(=O)C1(C)CCC(c2ccc(OC)cc2)C(CC(=O)O)C1=O` (centres undefined), the T/C under setting [6] is 95 % of control; the T/C (dose: 100.0 mg/kg/injection, schedule: Q04DX003 (ip), vehicle: saline) was 100 % of control; the T/C under setting [5] was 104 % of control; the T/C (dose: 200.0 mg/kg/injection, schedule: Q04DX003 (ip), vehicle: saline) was 119 % of control; the T/C under setting [7] is 109 % of control; the T/C (dose: 400.0 mg/kg/injection, schedule: Q04DX003 (ip), vehicle: saline) is 96 % of control.
Consider `CCCCCCC[CH2][Sn](=[O])[CH2]CCCCCCC`, for which the T/C is 120 % of control (dose: 3.12 mg/kg/injection, schedule: Q01DX009 (ip), vehicle: saline); 100 % of control under setting [1]; 115 % of control under setting [2]; 109 % of control (dose: 22.0 mg/kg/injection, schedule: Q04DX003 (ip), vehicle: other); 86 % of control under setting [8]; 100 % of control and 114 % of control (dose: 33.0 mg/kg/injection, schedule: Q04DX003 (ip), vehicle: Klucel (hydroxypropylcellulose) (HPC)). The T/C (dose: 33.0 mg/kg/injection, schedule: Q04DX003 (ip), vehicle: other) is 118 % of control; the T/C (dose: 50.0 mg/kg/injection, schedule: Q04DX003 (ip), vehicle: other) is 100 % of control; the T/C under setting [9] is 90 % of control.
As to `Cc1ccc(S(=O)(=O)Oc2cc([N+](=O)[O-])ccc2N)cc1`, the T/C was 109 % of control (dose: 100.0 mg/kg/injection, schedule: Q01DX001 (ip), vehicle: saline); 100 % of control (dose: 200.0 mg/kg/injection, schedule: Q01DX001 (ip), vehicle: saline); 104 % of control (dose: 400.0 mg/kg/injection, schedule: Q01DX001 (ip), vehicle: saline).
On to `CC1CCC2(C)CCC3(C)C(=CCC4C5(C)CCC(O)C(C)(C)C5CCC43C)C2C1C` (centres undefined), for which the T/C was 90 % of control (dose: 100.0 mg/kg/injection, schedule: Q01DX009 (ip), vehicle: water); 90 % of control (dose: 100.0 mg/kg/injection, schedule: Q04DX003 (ip), vehicle: water); 90 % of control (dose: 200.0 mg/kg/injection, schedule: Q04DX003 (ip), vehicle: water); 90 % of control (dose: 400.0 mg/kg/injection, schedule: Q01DX009 (ip), vehicle: water); 90 % of control (dose: 400.0 mg/kg/injection, schedule: Q04DX003 (ip), vehicle: water).
`C=C(C)S(=O)(=O)c1ccc(C)cc1`: the T/C was 108 % of control (dose: 100.0 mg/kg/injection, schedule: Q04DX003 (ip), vehicle: saline with Tween-80); 91 % of control under setting [10]; 88 % of control (dose: 400.0 mg/kg/injection, schedule: Q04DX003 (ip), vehicle: saline with Tween-80).
For `C=CC(=O)NCNC(=O)CCBr`, the T/C is 150 % of control under setting [10] and 170 % of control (dose: 300.0 mg/kg/injection, schedule: Q04DX003 (ip), vehicle: saline with Tween-80).
For `N#CC(C#N)=Cc1cccc([N+](=O)[O-])c1`, the T/C is 90 % of control and 115 % of control under setting [8]; 113 % of control (dose: 50.0 mg/kg/injection, schedule: Q04DX003 (ip), vehicle: Klucel (hydroxypropylcellulose) (HPC)); 95 % of control (dose: 100.0 mg/kg/injection, schedule: Q01DX009 (ip), vehicle: Klucel (hydroxypropylcellulose) (HPC)); 113 % of control under setting [9].
On to `CC(=O)O.[Pb]`, for which the T/C reads like this: (dose: 12.5 mg/kg/injection, schedule: Q01DX009 (ip), vehicle: Klucel (hydroxypropylcellulose) (HPC)) 109 % of control; under setting [8], 109 % of control; under setting [3], 90 % of control; under setting [11], 90 % of control.
In the case of `CCOC(=O)N1N(C(=O)c2ccccc2)C(=O)CC1(C)C`, the T/C by setting is: (dose: 200.0 mg/kg/injection, schedule: Q01DX001 (ip), vehicle: other) 100 % of control; (dose: 400.0 mg/kg/injection, schedule: Q01DX001 (ip), vehicle: other) 109 % of control.
As to `O=C1CCCCCCCCCCC1Cc1cc(O)c(CC2CCCCCCCCCCC2=O)cc1O` (centres undefined), the T/C runs as follows: under setting [11], 96 % of control; under setting [4], 94 % of control; (dose: 200.0 mg/kg/injection, schedule: Q01DX009 (ip), vehicle: saline with Tween-80) 100 % of control.
`C1CN(P2(N3CC3)=NP(N3CC3)(N3CC3)=NP(N3CC3)(N3CC3)=N2)CCO1` (centres undefined): the T/C under setting [1] was 167 % of control and 195 % of control; the T/C under setting [2] is 227 % of control and 200 % of control; the T/C (dose: 25.0 mg/kg/injection, schedule: Q01DX009 (ip), vehicle: saline) was 260 % of control and 155 % of control.
As to `CCOC(=O)CNC(=O)NC12CC3CC(CC(C3)C1)C2`, the T/C was 119 % of control under setting [6], 104 % of control under setting [5] and 102 % of control under setting [7].
